# Data reported in patent US20240382437A1, “TREATMENT OF ACUTE TISSUE INJURY” (OBVIA PHARMACEUTICALS LTD., priority 2021, published 2024).
# Tests used:
# [1] = tested on: transplanted BN kidney; assay: Histology of transplanted BN kidneys 20 hr after allograft transplant into LEW rats; format: in vivo, rat; settings: 20 hr post-transplant
# Protocol: LT (left), RT (right), MTD (Maximum Tolerated Dose), IP (intraperitoneal).
# (B,C,D) BN kidneys 20 hr following transplant into LEW rats. “20 hr” control kidneys (B,C) were flushed with room temperature UW Solution prior to transplant, and +PrC-210 kidneys (D) were flushed with room temperature UW Solution containing 30 mM PrC-210 prior to transplant, and recipient LEW rat also received three intraperitoneal systemic PrC-210 doses in the eight hours following transplant. Panel B red arrows highlight tubulitis pathology, and Panel C yellow arrows highlight peritubular capillaritis pathology.
# Operator randomly collected sample images of renal tubules from each of the indicated kidney groups in panels A,B,C. Then, using an ImageJ macro, H/E images (e.g., FIG. 3 panels A-C) were analyzed, and above-threshold pink or blue pixels were selected and enumerated, and their ratio was then calculated and plotted to provide an estimate of kidney white blood cell infiltration.
# (§1) To determine PrC-210 efficacy in suppressing inflammation-generated damage to a transplanted, allograft organ, we used an allograft rat kidney transplant model that largely eliminated the induction of the ischemia and reperfusion insults in transplant, and created only the third inflammation insult by allograft transplanting a kidney from a Brown strain (BN) rat into a recipient Lewis strain (LEW) rat (FIG. 1). PrC-210 was administered both pre-and post-implantation to determine its protective effect in suppressing any inflammation-associated damage to the transplanted BN kidney in the LEW rat. Brown Rat kidneys were flushed with UW solution containing PrC-210 and immediately transplanted into syngeneic Lewis Rat recipients. Ischemic time was virtually eliminated. Immediately following implant, and for 8 hr following kidney implant, recipient rats received systemic PrC-210 injections at doses that would enable continuous free radical-scavenging within the transplanted kidney. Transplanted kidneys and blood plasma were then harvested 20 hr following transplant to enable measurement of both PrC-210-conferred i) suppression of inflammatory by-products and ii) kidney protection.
# The same blinded histology sections were examined for mononuclear white cell infiltration.
# [2] = tested on: BN allograft kidneys; assay: Kidney function (serum creatinine and serum BUN) 20 hr after transplant of the BN kidney into a LEW rat; format: in vivo; settings: three IP PrC-210 injections
# From the text: Rats either received no PrC-210 (“20 Hr”) or three IP PrC-210 injections in the 20 hr period following transplant (“20 Hr +PrC-210”), before recipient rat was euthanized and serum was collected. P values are indicated. To determine PrC-210 efficacy in suppressing inflammation-generated damage to a transplanted, allograft organ, we used an allograft rat kidney transplant model that largely eliminated the induction of the ischemia and reperfusion insults in transplant, and created only the third inflammation insult by allograft transplanting a kidney from a Brown strain (BN) rat into a recipient Lewis strain (LEW) rat (FIG. 1). PrC-210 was administered both pre-and post-implantation to determine its protective effect in suppressing any inflammation-associated damage to the transplanted BN kidney in the LEW rat. Brown Rat kidneys were flushed with UW solution containing PrC-210 and immediately transplanted into syngeneic Lewis Rat recipients. Ischemic time was virtually eliminated. Immediately following implant, and for 8 hr following kidney implant, recipient rats received systemic PrC-210 injections at doses that would enable continuous free radical-scavenging within the transplanted kidney. […] Serum creatinine and serum BUN were also measured to assess function in the BN allograft kidneys 20 hr after transplant (FIG. 4).
# [3] = tested on: caspase 3,7; assay: Activated caspase 3,7 activity in post-transplant kidney supernatant, measured enzymatically; format: in vivo, rat; settings: 20 hr after transplant; PrC-210 in UW Solution plus systemic doses; 60 min reaction; FIG. 5
# Protocol: Kidney supernatant activated caspase 3,7 activity was measured enzymatically in a 60 min reaction.
# as §1
# [4] = tested on: TIMP-1; assay: TIMP-1 ELISA of serum and kidney homogenate 20 hr after transplant; format: in vivo, rat; settings: 20 hr post-transplant, kidney homogenates and sera, FIG. 6
# Protocol: (§2) TIMP-1, TNF-alpha and MIP-3A/CCL20 levels were determined by ELISA analysis. P values are indicated.
# as §1, with “Immediately following implant, and for 8 hr following kidney implant, recipient rats received systemic PrC-210 injections at doses that would enable continuous free radical-scavenging within the transplanted kidney. Transplanted kidneys and blood plasma were then harvested 20 hr following transplant to enable measurement of both PrC-210-conferred i) suppression of inflammatory by-products and ii) kidney protection.” left out
# (§3) In screening experiments, kidney homogenate supernates from 0 hr controls and 20 hr no treatment kidneys were screened with the Proteome Profiler 29 cytokine array to detect altered, inflammation-associated, cytokine and chemokine expression levels 20 hr post-transplant. […] Individual ELISA plates were then used to quantify these changes in kidney homogenates and sera, now including rats treated with PrC-210 as well. […]
# [5] = tested on: TNF-alpha; assay: TNF-alpha ELISA of serum and kidney homogenate 20 hr after transplant; format: in vivo, rat; settings: 20 hr post-transplant, kidney homogenates and sera, FIG. 6
# Protocol: as §2
# as §1, with “Immediately following implant, and for 8 hr following kidney implant, recipient rats received systemic PrC-210 injections at doses that would enable continuous free radical-scavenging within the transplanted kidney. Transplanted kidneys and blood plasma were then harvested 20 hr following transplant to enable measurement of both PrC-210-conferred i) suppression of inflammatory by-products and ii) kidney protection.” left out
# as §3
# [6] = tested on: MIP-3a/CCL20; assay: MIP-3a/CCL20 ELISA 20 hr after transplant; format: in vivo, rat; settings: 20 hr post-transplant, FIG. 6D
# Protocol: as §2
# as §1, with “Immediately following implant, and for 8 hr following kidney implant, recipient rats received systemic PrC-210 injections at doses that would enable continuous free radical-scavenging within the transplanted kidney. Transplanted kidneys and blood plasma were then harvested 20 hr following transplant to enable measurement of both PrC-210-conferred i) suppression of inflammatory by-products and ii) kidney protection.” left out
# as §3
# [7] = tested on: Caspase 1; assay: Caspase 1 in plasma of ICR mice after lethal radiation; format: in vivo; settings: PrC-210 given before or after lethal radiation with 8.68 Gy, FIG. 8
# From the text: Caspase 1 is a central activator of acute inflammation in neutrophilic cells, which recruits both T-cells and monocytes and activates apoptosis.
# [8] = tested on: Caspase 8; assay: Caspase 8 in brains of ICR mice after lethal radiation; format: in vivo
# From the text: Caspase 8 inhibition (FIG. 9) in the brain after acute injury, such as radiation, is support for less TNF-α activation, and TRL—and FAS receptor upregulation in the brain. […] This supports that inflammation, such as activation of microglia is normalized after PrC-210.
# [9] = in vivo; cited from earlier work
# [10] = tested on: kidney; settings: rodent kidney transplant study; cited from earlier work
# [11] = tested on: kidney; settings: rodent kidney transplant study; cited from earlier work; remark: listed apart in the source
structure (smiles),measurement,setting,value
"CNCC(CS)CNC [PrC-210, 3-(methylamino)-2-(methylaminomethyl) propane-1-thiol]",integrity of the renal tubule brush border epithelium (histology),"[1]; PrC-210 via perfusing UW Solution and intraperitoneal injections, FIG. 3",preserved integrity of the renal tubular brush border
same,Inflammatory Infiltration Score,"[1]; compared with 0 hr control group, FIG. 3, D",statistically the same as the 0 hr control group
same,Banff scores for tubulitis and peritubular capillaritis,"[1]; kidney perfused with PrC-210-containing UW Solution (30 mM) plus three post-implant intraperitoneal doses, FIG. 2",equal to Banff scores of the “0 Hr” control BN group
same,mononuclear white cell infiltration (blue pixels),"[1]; versus the untreated BN kidneys, P=0.011, FIG. 3",significantly suppressed
same,serum creatinine,"[2]; P=0.032, FIG. 4",significant reductions
same,serum BUN,"[2]; P=0.046, FIG. 4",significant reductions
same,activated caspase activity in BN kidney homogenates,[3],same activated caspase activity to that seen in “O hr” control kidneys
same,TIMP-1 levels,[4],decreased
same,TNF-alpha levels,[5],decreased
same,MIP-3a/CCL20 levels,[6],increased significantly higher
same,Caspase 1 in plasma,[7],6-day suppression
same,duration of the effect on Caspase 8,"[8]; ICR mice brain, lethal radiation with 8.68 Gy",at least six days
same,Caspase 8 in the brain,"[8]; ICR mice, PrC-210 given before lethal radiation with 8.68 Gy, FIG. 9",inhibition
same,hypotension side effects,[9],no measurable
same,nausea/emesis side effects,[9],no measurable
same,free-radical-induced kidney damage induced during 30 hr cold storage,[10],to background levels
same,free-radical-induced kidney damage induced during reperfusion injury upon implant,[11],to background levels
